Several values for one entry are separate records, joined by “and”; a condition that tells them apart may be missing. Equal values may be shown once. Where a name gives a salt, the structure may show the parent alone. Activity calls are given as the source filed them.
Assays:
Cytochrome P450 2C9 = Cytochrome P450 2C9 (Homo sapiens, UniProt P11712)
Cytochrome P450 2C19 = Cytochrome P450 2C19 (Homo sapiens, UniProt P33261); assay: Cytochrome panel assay with activity outcomes. Panel member name: p450-cyp2c19 Compounds with AC50 equal or less than 10 uM are considered active; format: functional
Chain of Cytochrome P450 2C19 (P33261 whole entry): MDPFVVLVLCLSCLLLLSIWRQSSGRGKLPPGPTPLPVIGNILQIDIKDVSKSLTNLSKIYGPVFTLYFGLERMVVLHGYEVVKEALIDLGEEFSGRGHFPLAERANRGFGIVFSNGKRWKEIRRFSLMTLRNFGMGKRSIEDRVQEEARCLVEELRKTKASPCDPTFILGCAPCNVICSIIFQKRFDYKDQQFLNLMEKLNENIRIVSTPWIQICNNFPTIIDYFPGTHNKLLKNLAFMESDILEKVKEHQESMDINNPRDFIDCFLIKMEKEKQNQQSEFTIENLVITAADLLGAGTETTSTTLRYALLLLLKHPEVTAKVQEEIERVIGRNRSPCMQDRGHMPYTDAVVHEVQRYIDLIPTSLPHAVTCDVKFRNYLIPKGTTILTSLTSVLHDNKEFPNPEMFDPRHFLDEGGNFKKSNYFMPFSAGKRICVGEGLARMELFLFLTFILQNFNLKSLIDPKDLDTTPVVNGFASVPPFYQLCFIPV

Cytochrome P450 3A4 = Cytochrome P450 3A4 (Homo sapiens, UniProt P08684);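 also: CYP3A4 tested as one member of a cytochrome P450 panel screen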
Chain of Cytochrome P450 3A4 (P08684 whole entry): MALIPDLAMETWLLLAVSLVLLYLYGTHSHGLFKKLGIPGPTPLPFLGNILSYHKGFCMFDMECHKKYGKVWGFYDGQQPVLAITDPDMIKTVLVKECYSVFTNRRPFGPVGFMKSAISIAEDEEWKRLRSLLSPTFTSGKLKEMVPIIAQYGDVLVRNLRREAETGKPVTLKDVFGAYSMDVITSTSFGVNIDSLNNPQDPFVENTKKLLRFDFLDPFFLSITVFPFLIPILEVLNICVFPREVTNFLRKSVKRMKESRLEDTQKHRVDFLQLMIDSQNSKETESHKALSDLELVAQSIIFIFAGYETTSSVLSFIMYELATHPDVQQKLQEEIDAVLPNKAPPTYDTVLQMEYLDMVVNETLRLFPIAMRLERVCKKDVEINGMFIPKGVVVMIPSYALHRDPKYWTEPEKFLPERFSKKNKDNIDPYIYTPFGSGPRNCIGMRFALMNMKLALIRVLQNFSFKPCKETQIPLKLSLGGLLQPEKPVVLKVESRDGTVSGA

[1] = target: T1, Heat shock factor protein 1 (Mus musculus, UniProt P38532); assay: enhancement of HSF1-driven luciferase signal – cell-based, NIH3T3, luminescence, dose retest, confirmation (AID 435004); format: functional;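 also: stress induced by proteasome inhibitor MG132 added 30 min after compound; luciferase reporter driven by HSF1 response element in NIH3T3 cells; actives raise luminescence as potentiators of the MG132 stress response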
T1 sequence (P38532 whole entry): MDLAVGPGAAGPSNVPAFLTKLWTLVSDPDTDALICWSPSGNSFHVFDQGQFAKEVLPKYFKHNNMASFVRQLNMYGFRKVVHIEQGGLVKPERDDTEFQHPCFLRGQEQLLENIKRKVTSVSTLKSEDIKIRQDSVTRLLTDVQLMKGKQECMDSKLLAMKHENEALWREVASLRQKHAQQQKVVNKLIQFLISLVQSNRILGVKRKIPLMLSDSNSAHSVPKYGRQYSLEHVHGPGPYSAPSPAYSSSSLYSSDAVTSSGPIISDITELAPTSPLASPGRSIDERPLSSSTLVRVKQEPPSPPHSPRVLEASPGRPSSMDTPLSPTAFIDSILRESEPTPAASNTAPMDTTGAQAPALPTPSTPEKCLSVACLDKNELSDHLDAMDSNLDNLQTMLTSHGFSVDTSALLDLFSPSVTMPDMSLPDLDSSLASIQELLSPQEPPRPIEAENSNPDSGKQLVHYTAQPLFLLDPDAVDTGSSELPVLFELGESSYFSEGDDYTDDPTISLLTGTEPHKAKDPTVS

[2] = Luminescence Cell-Based Dose Response HTS to Identify Inhibitors of 5'UTR Stem-Loop Driven Prion Protein mRNA Translation in H4 Neuroglioblastoma Cells. [Related pubchem assays: 1827 (Project Summary), 1813 (Primary HTS)]; format: functional
[3] = luciferase reporter signal suppression in cells – H4 neuroglioma cells, luminescence, dose response (AID 1990); format: functional, cell-based
[4] = alpha-synuclein stem-loop luciferase translation blockers – H4 neuroglioma cells, luminescence, confirmation (AID 1988); format: functional, cell-based
H9c2 = assay: cells; format: functional, cell-based; conditions: Rattus norvegicus, H9c2, Myocardium;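 also: confirmatory concentration-response retest of ultra-high-throughput screening hits for modulation of myocardial damage; cell death induced by hydrogen peroxide oxidative stress; compound pretreatment for 60 min then peroxide exposure for 2 h; potency is for protecting the cells against peroxide damage rather than for killing them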
Cytochrome P450 1A2 = target: T2, Cytochrome P450 1A2 (Homo sapiens, UniProt P05177);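 also: PubChem cytochrome P450 panel assay, CYP1A2 panel member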
T2 sequence (P05177 whole entry): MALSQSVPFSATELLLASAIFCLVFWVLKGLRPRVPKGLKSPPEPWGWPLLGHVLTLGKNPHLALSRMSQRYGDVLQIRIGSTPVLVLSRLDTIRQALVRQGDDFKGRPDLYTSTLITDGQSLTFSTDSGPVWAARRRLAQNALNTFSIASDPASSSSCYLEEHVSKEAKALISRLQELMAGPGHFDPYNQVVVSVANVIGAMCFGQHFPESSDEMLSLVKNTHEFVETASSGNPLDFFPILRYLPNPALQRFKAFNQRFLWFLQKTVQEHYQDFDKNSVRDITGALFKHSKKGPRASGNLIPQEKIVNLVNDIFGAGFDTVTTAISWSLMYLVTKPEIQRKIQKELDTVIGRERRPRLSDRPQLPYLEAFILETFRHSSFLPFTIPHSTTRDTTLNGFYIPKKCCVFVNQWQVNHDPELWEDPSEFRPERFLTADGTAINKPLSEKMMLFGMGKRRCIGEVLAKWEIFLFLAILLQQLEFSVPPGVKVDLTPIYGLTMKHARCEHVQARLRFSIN

Cytochrome P450 2D6 = Cytochrome P450 2D6 (Homo sapiens, UniProt P10635);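 also: CYP2D6 member of a cytochrome P450 panel assay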
Chain of Cytochrome P450 2D6 (P10635 whole entry): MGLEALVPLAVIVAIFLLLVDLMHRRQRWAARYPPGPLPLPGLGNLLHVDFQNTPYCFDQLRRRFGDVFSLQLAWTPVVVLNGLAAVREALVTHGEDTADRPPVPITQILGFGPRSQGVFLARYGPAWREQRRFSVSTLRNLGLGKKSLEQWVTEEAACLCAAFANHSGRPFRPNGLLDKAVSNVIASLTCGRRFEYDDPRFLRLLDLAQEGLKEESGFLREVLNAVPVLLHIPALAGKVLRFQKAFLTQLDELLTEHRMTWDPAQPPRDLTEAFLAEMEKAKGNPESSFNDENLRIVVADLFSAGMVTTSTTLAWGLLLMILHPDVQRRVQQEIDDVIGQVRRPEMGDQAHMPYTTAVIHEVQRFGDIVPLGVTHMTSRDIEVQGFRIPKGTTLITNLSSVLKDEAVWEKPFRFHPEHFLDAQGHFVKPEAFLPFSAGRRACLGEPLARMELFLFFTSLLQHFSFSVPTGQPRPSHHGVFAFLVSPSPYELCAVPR

Paired box protein Pax-8 = Paired box protein Pax-8 (Homo sapiens, UniProt Q06710); assay: PAX8 transcriptional activity inhibition in RMG-I – RMG-I cells, luciferase, cherry-pick, dose response (AID 687027); format: functional, cell-based;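 also: luciferase reporter driven by Pax8 target thyroperoxidase promoter measured by SteadyGlo luminescence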
Chain of Paired box protein Pax-8 (Q06710 whole entry): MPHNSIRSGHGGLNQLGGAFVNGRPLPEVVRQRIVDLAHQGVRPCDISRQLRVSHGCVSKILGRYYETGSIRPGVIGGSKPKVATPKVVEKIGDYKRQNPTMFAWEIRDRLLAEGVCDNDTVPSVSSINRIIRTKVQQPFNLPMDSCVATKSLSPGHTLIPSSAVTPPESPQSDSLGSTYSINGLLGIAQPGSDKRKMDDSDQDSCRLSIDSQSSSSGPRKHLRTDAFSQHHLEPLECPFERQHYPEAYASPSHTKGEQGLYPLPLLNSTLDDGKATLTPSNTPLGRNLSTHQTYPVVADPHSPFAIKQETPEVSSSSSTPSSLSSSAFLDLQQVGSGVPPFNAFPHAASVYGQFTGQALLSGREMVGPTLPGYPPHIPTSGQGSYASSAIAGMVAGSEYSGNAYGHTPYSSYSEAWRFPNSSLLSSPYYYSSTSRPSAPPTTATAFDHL

[5] = reduction of Shn3 3'UTR-driven luciferase in osteoblasts – cell-based, Clone20 osteoblasts, firefly luciferase, cherry-picked, dose response (AID 624132); format: functional;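 also: firefly luciferase luminescence from reporter carrying the Shn3 3'UTR in osteoblasts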

Chain of Cytochrome P450 2C9 (P11712 whole entry): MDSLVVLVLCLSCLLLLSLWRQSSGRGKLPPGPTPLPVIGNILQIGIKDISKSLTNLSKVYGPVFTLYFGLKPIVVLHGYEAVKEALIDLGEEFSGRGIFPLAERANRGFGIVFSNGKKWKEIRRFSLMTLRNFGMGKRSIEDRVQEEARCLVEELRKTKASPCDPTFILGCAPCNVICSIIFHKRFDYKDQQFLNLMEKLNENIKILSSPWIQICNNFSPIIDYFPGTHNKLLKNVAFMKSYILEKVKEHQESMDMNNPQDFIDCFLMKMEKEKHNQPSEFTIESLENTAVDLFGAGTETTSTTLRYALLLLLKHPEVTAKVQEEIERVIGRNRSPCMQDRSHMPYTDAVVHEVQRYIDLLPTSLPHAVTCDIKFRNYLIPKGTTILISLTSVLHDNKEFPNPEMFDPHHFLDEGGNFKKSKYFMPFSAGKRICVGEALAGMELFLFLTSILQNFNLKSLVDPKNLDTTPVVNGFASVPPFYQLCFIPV

With OCCN1CCN(c2nc(N3CCCCC3)nc(N3CCCCC3)n2)CC1 the AC50 (Cytochrome P450 2C9) was 15.8 µM (inconclusive), the AC50 (Cytochrome P450 2C19; read-out: AC50) was 39.8 µM (inconclusive) and the AC50 (Cytochrome P450 3A4) was 14.1 µM (inconclusive).

With Cn1c2ccc(F)cc2c2ncn(CCN3CCOCC3)c(=O)c21 the EC50 [1] was > 260 µM (inactive).

With C[C@H](NC(=O)[C@@H]1CSC2c3ccccc3C(=O)N21)C(=O)NCCc1ccccc1 (some centres undefined) the EC50 [1] was 248 µM (active).

In the case of O=c1c2ccccc2nnn1CSc1ncnc2ccccc12, the EC50 [1] is reported as 10.7 µM (active).

For CN(C)S(=O)(=O)c1ccc(Cl)c(NC(=O)CN2CCCCCC2)c1, the EC50 [2] was > 120 µM (not active), the EC50 [3] was > 120 µM (not active) and the EC50 [4] was > 120 µM (not active).

With COC(=O)Sc1nc(N2CCOCC2)c2c(c1C#N)CC(C)(C)OC2 the IC50 (H9c2) was 38.6 µM (inactive).

With CCn1cnc2c1c(=O)n(Cc1nnc3n1-c1ccccc1SC3)c(=O)n2Cc1ccccc1 the EC50 [1] was > 260 µM (inactive).

In the case of CC1=CC(=O)N(c2cccc(C(F)(F)F)c2)C1c1ccc(Cl)cc1 (centres undefined), the AC50 (Cytochrome P450 1A2) is reported as 14.1 µM (inconclusive) and the AC50 (Cytochrome P450 3A4) is reported as 10 µM (inconclusive).

With Nc1ccc(Sc2cc(Cl)nc(N)n2)cc1 the EC50 [2] was > 120 µM (not active), the EC50 [3] was > 120 µM (not active) and the EC50 [4] was 99.5 µM (active).

For O=C(CC(c1ccco1)S(=O)(=O)c1ccccc1)c1ccc(F)cc1 (centres undefined), the EC50 [1] was > 260 µM (inactive).

For C[C@@H]1OC=C2[C@@H](O)[C@H]3O[C@H]3C(=O)[C@]23[C@@H]2O[C@H](C)C(C4=C2[C@@H](O)[C@H]2O[C@@H]2C4=O)[C@@H]13, the AC50 (Cytochrome P450 2C19) was “inconclusive”.

For O=C1c2ccccc2NC(c2ccc3c(c2)OCO3)N1O (centres undefined), the AC50 (Cytochrome P450 2D6) was 14.1 µM (inconclusive), the AC50 (Cytochrome P450 2C9) was 14.1 µM (inconclusive) and the AC50 (Cytochrome P450 3A4) was 22.4 µM (inconclusive).

For C=CC[C@@H](CC(=O)N[C@H](CO)Cc1ccccc1)C(=O)N[C@H](COC(=O)[C@@H](CC=C)Cc1ccc(F)cc1)Cc1c[nH]c2ccccc12, the AC50 (Paired box protein Pax-8) was 8.96 µM (active).

For COc1ccc(NC(=O)N(C)[C@H]2C[C@H]3c4[nH]c5ccc(-c6ccc7c(c6)OCO7)cc5c4CCN3C[C@H]2[C@H](C)O)cc1, the IC50 (H9c2) was > 79 µM (inactive).

For CC(=O)Nc1cccc(-c2cc(NC=O)c3ncc(-c4ccc(C(C)=O)cc4)n3c2)c1, the IC50 (H9c2) was 11.2 µM (active).

With C=CCNC(=S)N/N=C/c1ccc(-c2ccc(Br)cc2)o1 the EC50 [1] was 134 µM (active).

For CCOC(=O)COc1ccc(/C=C2/S/C(=N/c3ccccc3)N(Cc3cccnc3)C2=O)cc1OC, the EC50 [1] was 31.7 µM (active).

For COc1nccc(-c2c(-c3ccc(F)cc3)ncn2C2CCC(O)CC2)n1 (centres undefined), the AC50 (Cytochrome P450 2D6) was 12.6 µM (inconclusive), the AC50 (Cytochrome P450 1A2) was 31.6 µM (inconclusive) and the AC50 (Cytochrome P450 2C9) was 7.94 µM (inconclusive). The AC50 (Cytochrome P450 2C19; read-out: AC50) was 7.94 µM (inconclusive).

For COc1ccc(/C=N/NC(=O)c2ccco2)cc1Cn1nc(C)c([N+](=O)[O-])c1C, the EC50 [2] was > 120 µM (not active), the EC50 [3] was > 120 µM (not active) and the EC50 [4] was > 120 µM (not active).

With Cc1ccc(S(=O)(=O)N/N=C/c2cccn2-c2ccc(Cl)cc2)cc1 the AC50 (Cytochrome P450 1A2) was 12.6 µM (inconclusive), the AC50 (Cytochrome P450 2C9) was 12.6 µM (inconclusive) and the AC50 (Cytochrome P450 2C19; read-out: AC50) was 0.0501 µM (inconclusive).

For N[C@H](C(=O)O)c1cc(O)cc(O)c1, the AC50 (Cytochrome P450 1A2) was 31.6 µM (inconclusive) and the AC50 (Cytochrome P450 2C19; read-out: AC50) was 15.8 µM (inconclusive) and 10 µM (inconclusive).

For CC(C)NCC(O)COc1cccc2ccccc12 (centres undefined) [PROPRANOLOL HYDROCHLORIDE], the AC50 [5] was 23.6 µM (active).
